Data on 22 compounds can be found in patent publication US20230391760A1, “HETEROCYCLIC GLP-1 AGONISTS” (Gasherbrum Bio, Inc., priority 2020, published 2023).

The target in the experiment is GLP-1 Receptor (Homo sapiens, UniProt P43220). The experiment is described as follows: GLP-1R agonist cAMP stimulation assay (HEK293/GLP1R/CRE-LUC cells, cAMP dynamic 2 Kit). Type of experiment: cell-based. The conditions noted are these: HEK293/CRE-Luc cell line stably expressing the GLP-1 Receptor, 30 min at 37° C. The essentials: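 HEK293 cells stably expressing human GLP-1R with CRE-luciferase, 1000 cells/well in DPBS with 0.5 mM IBMX and 0.1% BSA, treated with compound in 1/2-log serial dilution for 30 min at 37 °C. cAMP then detected by HTRF (cAMP-d2 plus anti-cAMP cryptate), 1 h at room temperature in the dark.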

Molecules are shown by their SMILES.

Sequence of GLP-1 Receptor (P43220 24-463, species assumed): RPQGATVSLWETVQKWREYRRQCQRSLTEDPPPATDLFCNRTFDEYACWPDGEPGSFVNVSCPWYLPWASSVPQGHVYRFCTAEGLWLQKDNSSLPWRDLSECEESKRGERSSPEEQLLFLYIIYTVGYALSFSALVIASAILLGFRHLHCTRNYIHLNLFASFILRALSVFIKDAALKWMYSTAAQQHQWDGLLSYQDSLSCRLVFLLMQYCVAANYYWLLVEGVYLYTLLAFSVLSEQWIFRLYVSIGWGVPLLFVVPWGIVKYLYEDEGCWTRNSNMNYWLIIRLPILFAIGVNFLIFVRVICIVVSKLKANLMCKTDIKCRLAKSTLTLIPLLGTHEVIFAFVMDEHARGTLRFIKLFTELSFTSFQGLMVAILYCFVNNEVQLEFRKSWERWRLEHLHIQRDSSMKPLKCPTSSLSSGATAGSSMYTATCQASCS

One may read the EC50 as the concentration that produces a half-maximal response. In turn, `O=C(Nc1ccc2c(c1)nc(CN1CCC(c3cccc(OCc4ccc(Cl)cc4F)n3)CC1)n2C[C@@H]1CCO1)c1cnc2ccccn12` [Compound 181a, N-{2-[(4-{6-[(4-chloro-2-fluorophenyl)methoxy]pyridin-2-yl}piperidin-1-yl)methyl]-1-{[(2S)-oxetan-2-yl]methyl}-1H-1,3-benzodiazol-5-yl}imidazo[1,2-a]pyridine-3-carboxamide] gave an EC50 of 0.31 nM. To `O=C(Nc1ccc2c(c1)nc(CN1CCC(c3cccc(OCc4ccc(Cl)cc4F)n3)CC1)n2C[C@@H]1CCO1)C1CCCNC1` (stereo partly drawn) [Compound 203a, N-{2-[(4-{6-[(4-chloro-2-fluorophenyl)methoxy]pyridin-2-yl}piperidin-1-yl)methyl]-1-{[(2S)-oxetan-2-yl]methyl}-1H-1,3-benzodiazol-5-yl}piperidine-3-carboxamide] belongs 3.2 nM; to `CC1(c2ccc(Cl)cc2F)Oc2cccc(C3CCN(Cc4nc5cc(-c6noc(=O)[nH]6)cnc5n4C[C@H]4CCCO4)CC3)c2O1` (stereo partly drawn) [Compound 399a, 3-[2-({4-[2-(4-chloro-2-fluorophenyl)-2-methyl-2H-1,3-benzodioxol-4-yl]piperidin-1-yl}methyl)-3-{[(2R)-oxolan-2-yl]methyl}-3H-imidazo[4,5-b]pyridin-6-yl]-4,5-dihydro-1,2,4-oxadiazol-5-one], 17 nM. To `O=C(Nc1ccc2c(c1)nc(CN1CCC(c3cccc(OCc4ccc(Cl)cc4F)n3)CC1)n2C[C@@H]1CCO1)c1ccn2cncc2c1` [Compound 179a, N-{2-[(4-{6-[(4-chloro-2-fluorophenyl)methoxy]pyridin-2-yl}piperidin-1-yl)methyl]-1-{[(2S)-oxetan-2-yl]methyl}-1H-1,3-benzodiazol-5-yl}imidazo[1,5-a]pyridine-7-carboxamide] belongs 0.27 nM; to `Fc1cc(Cl)ccc1[C@H]1COc2cccc(C3CCN(Cc4nc5cc(-c6nnc(C(F)(F)F)[nH]6)nnc5n4C[C@@H]4CCO4)CC3)c2O1` [Compound 523a, 4-[(3S)-3-(4-chloro-2-fluorophenyl)-2,3-dihydro-1,4-benzodioxin-5-yl]-1-[(7-{[(2S)-oxetan-2-yl]methyl}-3-[5-(trifluoromethyl)-4H-1,2,4-triazol-3-yl]-7H-imidazo[4,5-c]pyridazin-6-yl)methyl]piperidine], 0.14 nM; to `O=C(Nc1ccc2c(c1)nc(CN1CCC(c3cccc(OCc4ccc(Cl)cc4F)n3)CC1)n2C[C@@H]1CCO1)C1CCCC1` [Compound 151a, N-{2-[(4-{6-[(4-chloro-2-fluorophenyl)methoxy]pyridin-2-yl}piperidin-1-yl)methyl]-1-{[(2S)-oxetan-2-yl]methyl}-1H-1,3-benzodiazol-5-yl}cyclopentanecarboxamide], 0.8 nM. To `N#Cc1ccc(COc2cccc(N3CCN(Cc4nc5cc(-c6nnc(C(F)(F)F)[nH]6)cnc5n4C[C@@H]4CCO4)CC3)n2)c(F)c1` [Compound 495a, 3-fluoro-4-{[(6-{4-[(3-{[(2S)-oxetan-2-yl]methyl}-6-[5-(trifluoromethyl)-4H-1,2,4-triazol-3-yl]-3H-imidazo[4,5-b]pyridin-2-yl)methyl]piperazin-1-yl}pyridin-2-yl)oxy]methyl}benzonitrile] belongs 0.0084 nM. Compound `C[C@]1(c2ccc(Cl)cc2F)Oc2cccc(C3CCN(Cc4nc5cc(-c6noc(=O)[nH]6)nnc5n4C[C@@H]4CCO4)CC3)c2O1` [Compound 348a, 3-[6-({4-[(2S)-2-(4-chloro-2-fluorophenyl)-2-methyl-2H-1,3-benzodioxol-4-yl]piperidin-1-yl}methyl)-7-{[(2S)-oxetan-2-yl]methyl}-7H-imidazo[4,5-c]pyridazin-3-yl]-4,5-dihydro-1,2,4-oxadiazol-5-one] gave an EC50 of 0.062 nM. The value for `N#Cc1nnc(-c2cc3nc(CN4CCC(c5cccc(OCc6ccc(Cl)cc6F)n5)CC4)n(C[C@@H]4CCO4)c3cn2)[nH]1` [Compound 484a, 5-{2-[(4-{6-[(4-chloro-2-fluorophenyl)methoxy]pyridin-2-yl}piperidin-1-yl)methyl]-3-{[(2S)-oxetan-2-yl]methyl}-3H-imidazo[4,5-c]pyridin-6-yl}-4H-1,2,4-triazole-3-carbonitrile] was 0.0063 nM; that for `O=c1[nH]c(-c2cnc3c(c2)nc(CN2CC=C(c4cccc(OCc5ccc(Cl)cc5F)c4)CC2)n3C[C@@H]2CCO2)no1` [Compound 320a, 3-{2-[(4-{3-[(4-chloro-2-fluorophenyl)methoxy]phenyl}-1,2,3,6-tetrahydropyridin-1-yl)methyl]-3-{[(2S)-oxetan-2-yl]methyl}-3H-imidazo[4,5-b]pyridin-6-yl}-4,5-dihydro-1,2,4-oxadiazol-5-one] was 6.8 nM; that for `CO[C@@H](C)Cn1c(CN2CCC(c3cccc4c3O[C@@](C)(c3ccc(C#N)cc3F)O4)CC2)nc2cc(-c3noc(=O)[nH]3)ncc21` [Compound 443a, 3-fluoro-4-[(2S)-4-[1-({3-[(2S)-2-methoxypropyl]-6-(5-oxo-4,5-dihydro-1,2,4-oxadiazol-3-yl)-3H-imidazo[4,5-c]pyridin-2-yl}methyl)piperidin-4-yl]-2-methyl-2H-1,3-benzodioxol-2-yl]benzonitrile] was 0.28 nM. In the case of `C[C@]1(c2ccc(Cl)cn2)Oc2cccc(C3CCN(Cc4nc5cc(-c6nnc(C(F)(F)F)[nH]6)nnc5n4C[C@H]4CCOC4)CC3)c2O1` [Compound 474a, 5-chloro-2-[(2S)-2-methyl-4-{1-[(7-{[(3R)-oxolan-3-yl]methyl}-3-[5-(trifluoromethyl)-4H-1,2,4-triazol-3-yl]-7H-imidazo[4,5-c]pyridazin-6-yl)methyl]piperidin-4-yl}-2H-1,3-benzodioxol-2-yl]pyridine], the response was half-maximal at 1.5 nM (EC50). The value for `CC1(c2ccc(Cl)cc2F)Oc2cccc(C3CCN(Cc4nc5cc(-c6nnc(C(F)(F)F)[nH]6)cnc5n4C[C@H]4CCOC4)CC3)c2O1` (stereo partly drawn) [Compound 401a, 4-[2-(4-chloro-2-fluorophenyl)-2-methyl-2H-1,3-benzodioxol-4-yl]-1-[(3-{[(3R)-oxolan-3-yl]methyl}-6-[5-(trifluoromethyl)-4H-1,2,4-triazol-3-yl]-3H-imidazo[4,5-b]pyridin-2-yl)methyl]piperidine] was 0.6 nM. As for `Fc1cc(Cl)ccc1COc1cccc(C2CCN(Cc3nc4cc(-c5cn(C6CCCOC6)nn5)ccc4n3C[C@@H]3CCO3)CC2)n1` (stereo partly drawn) [Compound 209a, 2-[(4-{6-[(4-chloro-2-fluorophenyl)methoxy]pyridin-2-yl}piperidin-1-yl)methyl]-5-[1-(oxan-3-yl)-1H-1,2,3-triazol-4-yl]-1-{[(2S)-oxetan-2-yl]methyl}-1H-1,3-benzodiazole], a half-maximal response (EC50) required 3.2 nM.

`O=C(Nc1ccc2c(c1)nc(CN1CCC(c3cccc(OCc4ccc(Cl)cc4F)n3)CC1)n2C[C@@H]1CCO1)c1ccccc1` [Compound 166a, N-{2-[(4-{6-[(4-chloro-2-fluorophenyl)methoxy]pyridin-2-yl}piperidin-1-yl)methyl]-1-{[(2S)-oxetan-2-yl]methyl}-1H-1,3-benzodiazol-5-yl}benzamide] came in with an EC50 of 0.14 nM.

In the case of `O=c1[nH]c(-c2cc3nc(CN4CC=C(c5cccc(OCc6ccc(Cl)cc6F)c5)CC4)n(C[C@@H]4CCO4)c3cn2)no1` [Compound 308a, 3-{2-[(4-{3-[(4-chloro-2-fluorophenyl)methoxy]phenyl}-1,2,3,6-tetrahydropyridin-1-yl)methyl]-3-{[(2S)-oxetan-2-yl]methyl}-3H-imidazo[4,5-c]pyridin-6-yl}-4,5-dihydro-1,2,4-oxadiazol-5-one], a half-maximal response (EC50) required 0.5 nM.

Take `CCc1nnc(-c2cnc3c(c2)nc(CN2CCC(c4cccc5c4O[C@@](C)(c4ccc(Cl)cc4F)O5)CC2)n3C[C@@H]2CCO2)[nH]1` [Compound 352a, 4-[(2S)-2-(4-chloro-2-fluorophenyl)-2-methyl-2H-1,3-benzodioxol-4-yl]-1-{[6-(5-ethyl-4H-1,2,4-triazol-3-yl)-3-{[(2S)-oxetan-2-yl]methyl}-3H-imidazo[4,5-b]pyridin-2-yl]methyl}piperidine]: the EC50 turned out to be 0.43 nM. This EC50 and that of the compound before are within 1.5-fold of each other. Regarding `CC1(c2ccc(Cl)cc2F)Oc2cccc(C3CCN(Cc4nc5cc(-c6noc(=O)[nH]6)ccc5n4C[C@@H]4CCO4)CC3)c2O1` (single isomer, unassigned) [Compound 239b], the midpoint of the response, the EC50, lay at 0.04 nM. With `CC1(c2ccc(Cl)cc2F)Oc2cccc(C3CCN(Cc4nc5cc(-c6nnc(C(F)(F)F)[nH]6)cnc5n4CC4(C#N)CC4)CC3)c2O1` (stereo not shown) [Compound 254a, 1-{[2-({4-[2-(4-chloro-2-fluorophenyl)-2-methyl-2H-1,3-benzodioxol-4-yl]piperidin-1-yl}methyl)-6-[5-(trifluoromethyl)-4H-1,2,4-triazol-3-yl]-3H-imidazo[4,5-b]pyridin-3-yl]methyl}cyclopropane-1-carbonitrile], the midpoint of the response, the EC50, lay at 0.069 nM.

`Cc1nnc(-c2cc3nc(CN4CCC(c5cccc6c5O[C@@](C)(c5ccc(Cl)cn5)O6)CC4)n(C[C@@H]4CCO4)c3nn2)[nH]1` [Compound 477a, 5-chloro-2-[(2S)-2-methyl-4-(1-{[3-(5-methyl-4H-1,2,4-triazol-3-yl)-7-{[(2S)-oxetan-2-yl]methyl}-7H-imidazo[4,5-c]pyridazin-6-yl]methyl}piperidin-4-yl)-2H-1,3-benzodioxol-2-yl]pyridine] displayed a half-maximal effective concentration (EC50) of 0.98 nM.

As to `C[C@]1(c2ccc(Cl)cc2F)Oc2cccc(C3CCN(Cc4nc5cc(C(N)=O)nnc5n4C[C@@H]4CCO4)CC3)c2O1` [Compound 432a, 6-({4-[(2S)-2-(4-chloro-2-fluorophenyl)-2-methyl-2H-1,3-benzodioxol-4-yl]piperidin-1-yl}methyl)-7-{[(2S)-oxetan-2-yl]methyl}-7H-imidazo[4,5-c]pyridazine-3-carboxamide], the EC50 is 6.9 nM. For the compound `Fc1cc(Cl)ccc1COc1ncccc1C1=CCN(Cc2nc3cc(-c4nnc(C(F)(F)F)[nH]4)ccc3n2C[C@@H]2CCO2)CC1` [Compound 390a, 2-[(4-chloro-2-fluorophenyl)methoxy]-1′-[(1-{[(2S)-oxetan-2-yl]methyl}-5-[5-(trifluoromethyl)-4H-1,2,4-triazol-3-yl]-1H-1,3-benzodiazol-2-yl)methyl]-1′,2′,3′,6′-tetrahydro-3,4′-bipyridine], the EC50 is 0.48 nM.
